Assay [1] has as its system Type I Collagen gene Col1a1 expression. The assay can be described thus: Precision cut lung slices of mice under acute bleomycin exposure. The assay is classed as cell-based, mouse. To be noted: slices cultured 3 days; integrin inhibitors at IC50, pan-αv and ALK5 inhibitors at 10x IC50. The protocol:
Mice (C57BL/6) were administered 3 U/kg of bleomycin (Teva Pharmaceuticals; North Wales, PA) on day 0 via oropharyngeal aspiration while under anesthesia. On day 14, precision cut lung slices were obtained. Following euthanization, 2% low gelling temp agarose was injected into the mouse lungs via the trachea. […] The lobes were then subjected to precision slicing to obtain samples for culture using a microtome (Compresstome VF-300-0Z, Precisionary; Greenville, NC). Individual slices were distributed in a multiwell culture plate and cultured for 3 days under control (DMSO) and test compound conditions.

For assay [2], the system named is lung Col1a1 expression. The assay can be described thus: Precision cut lung slices of mice under chronic bleomycin exposure (single vs dual integrin inhibition). In kind it is cell-based, mouse. To be noted: slices cultured 7 days. The method, then:
Mice (C57BL/6) were administered 3 U/kg of bleomycin (Teva Pharmaceuticals; North Wales, PA) on Day 0 and 1 U/kg of bleomycin on days 14, 28, 42 and 56 via oropharyngeal aspiration while under anesthesia. At day 70, 14 days after the final bleomycin insult, precision cut lung slices were obtained. Following euthanization, 2% low gelling temp agarose was injected into the mouse lungs via the trachea. […] The lobes were then subjected to precision slicing to obtain samples for culture using a microtome (Compresstome VF-300-0Z, Precisionary; Greenville, NC). Individual slices were distributed in a multiwell culture plate and cultured for 7 days under control (DMSO) and test compound conditions. […]
During the culture period, slices in the control group were treated with DMSO and slices in the test group were treated with a DMSO solution of one of: the selective antibody αvβ6 inhibitor 3G9; the αvβ1-selective small molecule inhibitor; a combination of the selective antibody αvβ6 inhibitor 3G9 and the αvβ1-selective small molecule inhibitor; compound 5; and the small molecule ALK5 inhibitor. The selective αvβ1 and αvβ6 integrin inhibitors were analyzed at ≥ their respective IC90 concentrations for inhibition of TGF-beta activation. […] The small molecule ALK5 inhibitor was analyzed at 10x its reported IC50 value.

Assay [3] has as its system lung Col1a1 expression. The experiment in a line: Precision cut lung slices of mice under chronic bleomycin exposure (vs pirfenidone and nintedanib). The assay is classed as cell-based, mouse. To be noted: slices cultured 7 days; nintedanib and pirfenidone at 10x therapeutic concentrations. The method, then:
Mice (C57BL/6) were administered 3 U/kg of bleomycin (Teva Pharmaceuticals; North Wales, PA) on Day 0 and 1 U/kg of bleomycin on days 14, 28, 42 and 56 via oropharyngeal aspiration while under anesthesia. At day 70, 14 days following the final bleomycin insult, precision cut lung slices were obtained. Following euthanization, 2% low gelling temp agarose was injected into the mouse lungs via the trachea. […] The lobes were then subjected to precision slicing to obtain samples for culture using a microtome (Compresstome VF-300-0Z, Precisionary; Greenville, NC). Individual slices were distributed in a multiwell culture plate and cultured for 7 days under control (DMSO) and test compound conditions. The viability of the slices over the course of culturing was confirmed by WST-1 assay of mitochondrial activity.
During the culture period, slices in the control group were treated with DMSO and slices in the test group were treated with a DMSO solution of one of: compound 5; nintedanib; pirfenidone; a combination of nintedanib and compound 5; a combination of pirfenidone and compound 5; or the small molecule ALK5 inhibitor. Compound 5 was […] effective to equal or exceed its respective IC50 values at αvβ6 and αvβ1. The small molecule ALK5 inhibitor was analyzed at 10x its reported IC50 value. Nintendanib and pirfenidone were analyzed at concentrations 10x their reported therapeutic concentrations.

Assay [4] deals with lung Col1a1 expression. The experiment in a line: Precision cut lung slices from human IPF explants, 3 days. The assay is classed as cell-based. To be noted: 3G9 ≥400 ng/mL, compound 5 179 nM, ALK5 inhibitor 1 µM. The source says:
Explanted lung tissue was obtained from human IPF subjects and inflated with agarose as described in the preceding examples. Biopsy cores were obtained from the agarose-inflated lung tissue. The biopsy cores were subjected to precision slicing to obtain several hundred µm thick. Individual slices were distributed in a multiwell culture plate and cultured for 3 days under control (DMSO) and test compound conditions. The viability of the slices over the course of culturing was confirmed by WST-1 assay of mitochondrial activity.

SMILES strings stand for the structures.

`Cc1cccc(-c2n[nH]cc2-c2ccc(F)c(-c3cnn(CCO)c3)c2)n1` [small molecule ALK5 inhibitor, 4-[2-Fluoro-5-[3-(6-methyl-2-pyridinyl)-1H-pyrazol-4-yl]phenyl]-1H-pyrazole-1-ethanol, reference compound]: the “Type I Collagen gene Col1a1 expression vs DMSO control” value in assay [1] is listed as “greatest decrease”. Moreover, the “lung Col1a1 expression vs DMSO control” value with lung Col1a1 expression [2] was “greatest decrease”; in the assay with lung Col1a1 expression [3], “substantial, statistically significant”; with lung Col1a1 expression [4] it was “substantial, statistically significant”.

For the origin of these results see patent US20230293519A1, “INTEGRIN INHIBITORS AND USES THEREOF IN COMBINATION WITH OTHER AGENTS” (Pliant Therapeutics, Inc., priority 2021, published 2023).
